Measured values reported in US8426174B2, “Method for the production of 2-butanol” (Butamax(TM) Advanced Biofuels LLC, priority 2007, dated 2013).
Where two headings read alike, the source gives them in different places.

Legend:
[1] = test system: Lactobacillus plantarum PN0512; experiment: Growth of L. plantarum PN0512 in the presence of butanols at different temperatures; type: cell-based; design: key to Growth at 37° C. / Growth at 30° C. / Growth at 25° C.: +: growth observed as an increase in OD600.; −: no growth observed, i.e. no change in OD600
Protocol: Tolerance levels of bacterial strain Lactobacillus plantarum PN0512 (ATCC # PTA-7727) were determined at 25° C., 30° C. and 37° C. as follows. The strain was cultured in S30L medium (i.e., 10 mM ammonium sulfate, 5 mM potassium phosphate buffer, pH 7.0, 50 mM MOPS, pH 7.0, 2 mM MgCl2, 0.7 mM CaCl2, 50 μM MnCl2, 1 μM FeCl3, 1 μM ZnCl2, 1.72 μM CuCl2, 2.53 μM CoCl2, 2.42 μM Na2MoO4, 2 μM thiamine hydrochloride, 10 mM glucose, and 0.2% yeast extract). An overnight culture in the absence of any test compound was started in 15 mL of the S30L medium in a 150 mL flask, with incubation at 37° C. in a shaking water bath. The next morning, the overnight culture was diluted into three 500 mL flasks containing 150 mL of fresh medium to an initial OD600 of about 0.08. Each flask was incubated in a shaking water bath, one each at 25° C., 30° C. and 37° C. Each large culture was allowed to acclimate at the test temperature for at least 0.5 h. […] Growth was followed by measuring OD600 for six hours after addition of the compounds.

E. coli (strain MG1655) = conditions: for % Survival at 30° C. / % Survival at 37° C. / % Survival at 0° C.: 1 h; for concentration at which E. coli cells were killed: one hour
Protocol: (§1) Using overnight cultures or cells from plates, 30 mL cultures of the microorganisms to be tested were started in the following culture media: • E. coli—Miller's LB medium (Teknova, Half Moon Bay, Calif.): • L. plantarum PN0512—Lactobacilli MRS Broth (BD Diagnostic Systems, Sparks, Md.). The E. coli and L. plantarum cultures were grown at 37° C. aerobically with shaking until the cultures were in log phase and the OD600 was between 0.6 and 0.8. A 50 μL aliquot of each culture was removed for a time zero sample. The remainder of the cultures was divided into six 5 mL portions and placed in six small incubation flasks or tubes. […] The flasks or tubes were incubated at a desired temperature, aerobically without shaking for 1 h. After the incubation with one of the butanols, 2 μL from each of the flasks (and in addition 2 μL of the time zero sample of the culture before exposure to one of the butanols) were pipetted into the “head” wells of a 96 well (8×12) microtiter plate, each containing 198 μL of LB medium to give a 10^−2 dilution of the culture. Subsequently, 10^−3, 10^−4, 10^−5, and 10^−6 serial dilutions of the cultures were prepared as follows. The 10^−3 dilution was prepared by pipetting 20 μL of the sample from the head well into the 180 μL LB medium in the next well using a multi-channel pipette. This procedure was repeated 3 more times on successive wells to prepare the 10^−4, 10^−5, and 10^−6 dilutions. After each liquid transfer, the solution in the well was mixed by pipetting it up and down 10 times with the multi-channel pipetor. A 5 μL aliquot of each dilution was spotted onto an LB plate using a multi-channel pipette starting with the 10^−6 dilution, then the 10^−5, and so on working from more to less dilute without a change of tips. The spots were allowed to soak into the agar by leaving the lid of the plate slightly open for 15 to 30 min in a sterile transfer hood. The plates were covered, inverted, and incubated overnight at 37° C. The following day, the number of colonies in the spots were counted from the different dilutions. The number of living cells/mL in each of the original culture solutions from which the 2 μL was withdrawn was calculated and compared to the number of cells in the control untreated culture to determine the % of the cells surviving.

L. plantarum PN0512 = conditions: for % Survival at 37° C. / % Survival at 23° C. / % Survival at 0° C. / concentration at which L. plantarum PN0512 cells were killed: one hour
Protocol: as §1

Substance: 1-butanol
- Growth at 37° C. ([1]; 1.0 % w/v 1-butanol): +
- Growth at 37° C. ([1]; 1.2 % w/v 1-butanol): +
- Growth at 37° C. ([1]; 1.4 % w/v 1-butanol): +
- Growth at 25° C. ([1]; 1.5 % w/v 1-butanol): +
- Growth at 30° C. ([1]; 1.5 % w/v 1-butanol): +
- Growth at 37° C. ([1]; 1.5 % w/v 1-butanol): +
- Growth at 37° C. ([1]; 1.6 % w/v 1-butanol): +
- Growth at 37° C. ([1]; 1.8 % w/v 1-butanol): +
- Growth at 25° C. ([1]; 2.0 % w/v 1-butanol): +
- Growth at 30° C. ([1]; 2.0 % w/v 1-butanol): +
- Growth at 37° C. ([1]; 2.0 % w/v 1-butanol): +
- Growth at 37° C. ([1]; 2.1 % w/v 1-butanol): +
- Growth at 37° C. ([1]; 2.2 % w/v 1-butanol): +
- Growth at 37° C. ([1]; 2.3 % w/v 1-butanol): +
- Growth at 25° C. ([1]; 2.4 % w/v 1-butanol): +
- Growth at 30° C. ([1]; 2.4 % w/v 1-butanol): +
- Growth at 37° C. ([1]; 2.4 % w/v 1-butanol): −^2
- Growth at 30° C. ([1]; 2.7 % w/v 1-butanol): +
- Growth at 37° C. ([1]; 2.7 % w/v 1-butanol): −
- Growth at 25° C. ([1]; 2.9 % w/v 1-butanol): +
- Growth at 30° C. ([1]; 2.9 % w/v 1-butanol): −
- Growth at 37° C. ([1]; 2.9 % w/v 1-butanol): −
- Growth at 25° C. ([1]; 3.1 % w/v 1-butanol): +
- Growth at 30° C. ([1]; 3.1 % w/v 1-butanol): −
- Growth at 37° C. ([1]; 3.1 % w/v 1-butanol): −
- Growth at 25° C. ([1]; 3.2 % w/v 1-butanol): −
- Growth at 30° C. ([1]; 3.2 % w/v 1-butanol): −
- Growth at 25° C. ([1]; 3.3 % w/v 1-butanol): −
- Growth at 25° C. ([1]; 3.4 % w/v 1-butanol): −
- Growth at 30° C. ([1]; 3.4 % w/v 1-butanol): −
- concentration in which growth was observed ([1]; 25° C.): 3.1%
- concentration in which growth was not observed ([1]; 30° C.): 2.9%
- concentration in which growth was observed ([1]; 30° C.): 2.7%
- concentration in which growth was not observed ([1]; 37° C.): 2.4%
- concentration in which growth was observed ([1]; 37° C.): 2.3%
- Growth at 37° C. ([1]; […] w/v 1-butanol): −
- concentration with no toxic effect on E. coli cells (E. coli (strain MG1655); 0° C., one hour treatment): ≤ 4.5 % v/v
- % Survival at 30° C. (E. coli (strain MG1655); 1 % v/v 1-butanol): 100%
- % Survival at 37° C. (E. coli (strain MG1655); 1 % v/v 1-butanol): 72%
- % Survival at 30° C. (E. coli (strain MG1655); 1.5 % v/v 1-butanol): 100%
- % Survival at 37° C. (E. coli (strain MG1655); 1.5 % v/v 1-butanol): 20%
- % Survival at 30° C. (E. coli (strain MG1655); 2 % v/v 1-butanol): 100%
- % Survival at 37° C. (E. coli (strain MG1655); 2 % v/v 1-butanol): 0%
- % Survival at 0° C. (E. coli (strain MG1655); 3 % v/v 1-butanol): 100%
- % Survival at 30° C. (E. coli (strain MG1655); 3 % v/v 1-butanol): 0%
- % Survival at 37° C. (E. coli (strain MG1655); 3 % v/v 1-butanol): 0%
- % Survival at 0° C. (E. coli (strain MG1655); 4 % v/v 1-butanol): 100%
- concentration at which E. coli cells were killed (E. coli (strain MG1655); 30° C.): 3 % v/v
- concentration at which E. coli cells were killed (E. coli (strain MG1655); 37° C.): 2 % v/v
- % Survival at 0° C. (E. coli (strain MG1655); […] v/v 1-butanol): 100%
- % Survival at 37° C. (E. coli (strain MG1655); […] v/v 1-butanol): 0%
- concentration with no toxic effect on L. plantarum PN0512 cells (L. plantarum PN0512; 0° C., one hour treatment): ≤ 4.5 % v/v
- % Survival at 37° C. (L. plantarum PN0512; 1 % v/v 1-butanol): 80%
- % Survival at 37° C. (L. plantarum PN0512; 1.5 % v/v 1-butanol): 58%
- % Survival at 23° C. (L. plantarum PN0512; 2 % v/v 1-butanol): 100%
- % Survival at 37° C. (L. plantarum PN0512; 2 % v/v 1-butanol): 29%
- % Survival at 0° C. (L. plantarum PN0512; 3 % v/v 1-butanol): 100%
- % Survival at 23° C. (L. plantarum PN0512; 3 % v/v 1-butanol): 82%
- % Survival at 37° C. (L. plantarum PN0512; 3 % v/v 1-butanol): 0%
- % Survival at 0° C. (L. plantarum PN0512; 4 % v/v 1-butanol): 100%
- % Survival at 23° C. (L. plantarum PN0512; 4 % v/v 1-butanol): 0%
- % Survival at 0° C. (L. plantarum PN0512; 5 % v/v 1-butanol): 0%
- % Survival at 0° C. (L. plantarum PN0512; 5.5 % v/v 1-butanol): 0%
- concentration at which L. plantarum PN0512 cells were killed (L. plantarum PN0512; 23° C.): 3.5 % v/v
- concentration at which L. plantarum PN0512 cells were killed (L. plantarum PN0512; 37° C.): 2.5 % v/v
- % Survival at 0° C. (L. plantarum PN0512; […] v/v 1-butanol): 100%
